20 molecules from US20240360113A1, “AMINOARYL-INTEGRIN AGONISTS COMPOUNDS” (Texas Heart Institute, priority 2021, published 2024) can be followed below.

One experiment addresses T1, αLβ2/ICAM-1 (Homo sapiens, UniProt P05107+P20701).
T1 construct: The Jurkat (VCAM-1 assays) and HSB (ICAM-1 assays) cell lines were obtained from American Type Culture Collection; endogenous in cells; host or cells: HSB (ATCC)
Nature of the experiment: Static cell adhesion assay, HSB cells on ICAM-1 (LFA-1; LAD). Conditions: RFU of compound / RFU of THI0349, both at the same concentration. The format is cell-based. The procedure: (§1) For in vitro cell adhesion assays, compounds were dissolved in DMSO to make a series of stock solutions such that a 1:100 dilution in assay buffer would yield the desired final working concentrations in 1% DMSO (vehicle). Human VCAM-1 and ICAM-1 were purchased from R&D Systems (Minneapolis, MN). The Jurkat (VCAM-1 assays) and HSB (ICAM-1 assays) cell lines were obtained from American Type Culture Collection (Manassas, VA) and were maintained in recommended culture media.
(§2) Assays were performed as previously described in Vanderslice et al., (2010), Biochem Biophys Res Commun 400, 619-624; and Vanderslice et al., (2013) J Biol Chem 288, 19414-19428. VCAM-1 or ICAM-1 ligand in 50 μL of 50 mM Tris-HCl (pH 7.4), 150 mM NaCl, (TBS) was added to wells of a 96-well plate and allowed to coat overnight at 4° C. To maximize the window to evaluate agonist activity, a sub-optimal coating concentration of ligand was used, typically 0.5 and 5 μg/mL in 50 μL TBS for VCAM-1 and ICAM-1 respectively. This ligand concentration corresponded approximately to that which would yield <5% adhesion as determined by dose-response curves. Briefly, 2×10^6 cells were labeled for 30 minutes with calcein-AM (Molecular Probes), washed, resuspended in binding buffer, and added to triplicate wells of ligand-coated plates (2×10^5 cells/well) that had been blocked with 2% BSA. After a 30-minute incubation at 37° C., the plates were washed 3 times with binding buffer, the adherent cells were lysed, and fluorescence was measured on a Tecan Safire^2 plate reader. The binding buffer was PBS with 1 mM MgCl2, 50% FBS for α4β1/VCAM-1 assays and PBS with 2 mM MgCl2, 5 mM EGTA, 50% FBS for αLβ2/ICAM-1 assays. EC50 is defined as the concentration of compound required to achieve 50% of the maximal response.
In relation to LAD (Leukocyte Adhesion Deficiency), LFA-1 ratios are determined by dividing the relative fluorescence units (RFU) of each compound at a concentration of 3 μM over that of the reference standard of THI0349, also at 3 μM, (RFU Compound/RFU of THI0349). Log Ps were calculated by either Chemdraw® version 12 (CambridgeSoft) or ACD/Chemsketch® (ACD/Labs).

The next experiment addresses T2, α4β1/VCAM-1 (Homo sapiens, UniProt P05556+P13612).
T2 construct: The Jurkat (VCAM-1 assays) and HSB (ICAM-1 assays) cell lines were obtained from American Type Culture Collection; endogenous in cells; host or cells: Jurkat (ATCC)
The experiment is described as follows: Static cell adhesion assay, Jurkat cells on VCAM-1 (VLA-4 agonist activity). It counts as cell-based. Particulars: EC50 relative to THI0349 (average 11 uM) run on the same plate; Jurkat cells, 50% FBS. As for the experimental part:
as §1, §2

Structures are written as SMILES.

T2 sequence (P13612 34-1032): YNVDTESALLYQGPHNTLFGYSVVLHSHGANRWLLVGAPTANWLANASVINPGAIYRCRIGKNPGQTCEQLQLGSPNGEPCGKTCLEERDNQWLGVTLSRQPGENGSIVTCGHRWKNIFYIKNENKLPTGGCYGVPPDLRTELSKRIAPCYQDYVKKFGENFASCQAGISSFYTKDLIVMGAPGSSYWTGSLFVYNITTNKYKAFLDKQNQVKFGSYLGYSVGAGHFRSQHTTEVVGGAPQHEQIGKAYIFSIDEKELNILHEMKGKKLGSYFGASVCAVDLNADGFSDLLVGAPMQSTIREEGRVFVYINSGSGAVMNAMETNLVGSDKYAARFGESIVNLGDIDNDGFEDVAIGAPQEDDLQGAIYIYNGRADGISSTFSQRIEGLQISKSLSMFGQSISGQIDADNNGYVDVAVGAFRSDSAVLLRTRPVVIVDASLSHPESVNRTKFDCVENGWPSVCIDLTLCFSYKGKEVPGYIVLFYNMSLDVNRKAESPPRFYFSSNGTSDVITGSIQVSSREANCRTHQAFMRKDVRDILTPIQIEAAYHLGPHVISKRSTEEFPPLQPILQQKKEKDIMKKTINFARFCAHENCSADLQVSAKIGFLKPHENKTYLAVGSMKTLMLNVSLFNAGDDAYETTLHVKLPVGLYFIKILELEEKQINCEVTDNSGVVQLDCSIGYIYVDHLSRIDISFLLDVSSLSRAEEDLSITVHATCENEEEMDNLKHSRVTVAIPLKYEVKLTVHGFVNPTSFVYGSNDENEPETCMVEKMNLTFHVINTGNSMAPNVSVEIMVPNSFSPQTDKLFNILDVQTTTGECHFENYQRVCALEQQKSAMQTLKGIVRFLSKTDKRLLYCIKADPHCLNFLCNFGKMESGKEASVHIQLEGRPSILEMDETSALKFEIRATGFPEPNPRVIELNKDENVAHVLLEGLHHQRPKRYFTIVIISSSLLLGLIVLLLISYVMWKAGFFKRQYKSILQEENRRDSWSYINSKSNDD
T2 sequence (P05556 21-798): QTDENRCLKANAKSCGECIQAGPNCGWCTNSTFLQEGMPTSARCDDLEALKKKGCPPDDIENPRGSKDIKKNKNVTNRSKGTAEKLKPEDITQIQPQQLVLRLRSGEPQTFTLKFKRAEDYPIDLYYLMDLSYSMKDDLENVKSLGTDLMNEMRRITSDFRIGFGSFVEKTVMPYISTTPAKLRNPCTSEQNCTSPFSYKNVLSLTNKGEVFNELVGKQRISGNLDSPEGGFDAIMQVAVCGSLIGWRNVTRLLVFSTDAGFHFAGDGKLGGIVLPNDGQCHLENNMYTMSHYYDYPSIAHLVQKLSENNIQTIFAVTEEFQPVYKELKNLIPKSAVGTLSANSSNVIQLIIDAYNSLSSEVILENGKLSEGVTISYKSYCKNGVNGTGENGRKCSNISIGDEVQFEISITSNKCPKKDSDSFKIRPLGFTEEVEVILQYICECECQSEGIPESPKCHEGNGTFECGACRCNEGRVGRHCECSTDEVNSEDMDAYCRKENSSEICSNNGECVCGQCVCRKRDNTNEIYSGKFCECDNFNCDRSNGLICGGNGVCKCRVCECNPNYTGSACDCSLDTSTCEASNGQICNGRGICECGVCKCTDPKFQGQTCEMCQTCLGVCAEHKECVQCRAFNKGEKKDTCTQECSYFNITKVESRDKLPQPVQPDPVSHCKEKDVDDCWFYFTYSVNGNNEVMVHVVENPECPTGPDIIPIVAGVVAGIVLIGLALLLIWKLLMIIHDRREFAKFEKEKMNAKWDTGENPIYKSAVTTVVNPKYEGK
T1 sequence (P20701 26-1170): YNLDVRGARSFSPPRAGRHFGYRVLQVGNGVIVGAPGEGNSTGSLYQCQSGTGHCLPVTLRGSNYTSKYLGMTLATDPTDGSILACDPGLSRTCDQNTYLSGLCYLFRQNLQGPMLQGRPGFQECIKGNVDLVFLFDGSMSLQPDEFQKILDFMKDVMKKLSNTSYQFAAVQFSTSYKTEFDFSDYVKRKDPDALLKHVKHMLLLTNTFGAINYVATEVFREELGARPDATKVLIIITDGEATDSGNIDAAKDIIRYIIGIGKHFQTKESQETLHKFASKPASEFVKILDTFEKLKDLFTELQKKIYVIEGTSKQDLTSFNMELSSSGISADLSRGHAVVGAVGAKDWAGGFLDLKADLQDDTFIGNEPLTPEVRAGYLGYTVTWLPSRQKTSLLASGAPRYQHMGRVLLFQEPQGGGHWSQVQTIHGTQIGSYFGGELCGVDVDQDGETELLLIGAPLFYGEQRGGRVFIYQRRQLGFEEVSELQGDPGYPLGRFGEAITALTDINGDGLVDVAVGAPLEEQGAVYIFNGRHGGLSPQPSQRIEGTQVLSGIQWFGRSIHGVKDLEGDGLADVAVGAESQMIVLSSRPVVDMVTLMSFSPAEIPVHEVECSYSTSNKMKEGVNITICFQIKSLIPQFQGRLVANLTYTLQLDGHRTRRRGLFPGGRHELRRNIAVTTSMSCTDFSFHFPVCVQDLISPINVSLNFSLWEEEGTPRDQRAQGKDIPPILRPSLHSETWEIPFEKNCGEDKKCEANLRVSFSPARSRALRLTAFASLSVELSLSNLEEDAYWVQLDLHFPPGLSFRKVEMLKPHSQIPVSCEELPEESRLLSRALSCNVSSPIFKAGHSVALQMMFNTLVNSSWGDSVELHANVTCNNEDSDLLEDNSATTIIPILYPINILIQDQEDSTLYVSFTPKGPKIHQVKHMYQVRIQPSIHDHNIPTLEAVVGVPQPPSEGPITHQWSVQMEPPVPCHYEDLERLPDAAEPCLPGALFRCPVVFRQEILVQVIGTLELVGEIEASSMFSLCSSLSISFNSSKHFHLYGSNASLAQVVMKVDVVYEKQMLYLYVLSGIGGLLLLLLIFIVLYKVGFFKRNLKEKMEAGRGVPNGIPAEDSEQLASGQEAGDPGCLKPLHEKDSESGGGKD
T1 sequence (P05107 23-769): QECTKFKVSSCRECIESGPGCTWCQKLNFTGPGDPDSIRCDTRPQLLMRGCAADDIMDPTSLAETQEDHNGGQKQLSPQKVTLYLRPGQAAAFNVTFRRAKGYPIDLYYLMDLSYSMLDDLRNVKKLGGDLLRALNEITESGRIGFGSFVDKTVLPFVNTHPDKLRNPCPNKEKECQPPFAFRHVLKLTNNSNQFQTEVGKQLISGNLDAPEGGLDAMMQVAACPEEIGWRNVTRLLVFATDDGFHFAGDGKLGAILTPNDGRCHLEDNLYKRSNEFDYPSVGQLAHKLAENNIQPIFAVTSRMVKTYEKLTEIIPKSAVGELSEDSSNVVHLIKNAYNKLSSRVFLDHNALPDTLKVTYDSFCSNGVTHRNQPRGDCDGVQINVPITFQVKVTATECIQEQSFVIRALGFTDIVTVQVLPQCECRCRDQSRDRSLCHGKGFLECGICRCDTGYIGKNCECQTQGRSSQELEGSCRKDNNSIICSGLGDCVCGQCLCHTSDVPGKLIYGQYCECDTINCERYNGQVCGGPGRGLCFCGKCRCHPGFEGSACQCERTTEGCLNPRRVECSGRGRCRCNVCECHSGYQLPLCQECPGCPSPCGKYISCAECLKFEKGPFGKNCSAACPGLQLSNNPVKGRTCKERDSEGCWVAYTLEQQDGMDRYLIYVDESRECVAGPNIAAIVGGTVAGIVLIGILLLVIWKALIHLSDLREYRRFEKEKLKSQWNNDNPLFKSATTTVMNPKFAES

With `COc1cccc(CN(Cc2cccc(OC)c2)c2nc(COCCOCCOc3ccc(N(C)C)cc3)cs2)c1` [Compound 46, 4-((2-(2-(4-(dimethylamino)phenoxy)ethoxy)ethoxy)methyl)-N,N-bis(3-methoxybenzyl)thiazol-2-amine], on αLβ2/ICAM-1, the “LAD Raw Fluorescence Units against LFA-1; Dose 3 µM; Ratio of raw counts Compound/THI0349” value stood at 1.5. Also, the “Group against VCAM” value on α4β1/VCAM-1 is on record as “I (Group I maintains at least the same potency or better up to more than twice that of the EC50 of THI0349 ran on the same plate)”.

`CCOC(=O)c1coc(N(Cc2cccc(OCCOC)c2)Cc2cccc(OCCOC)c2)n1` [Compound 16, ethyl 2-(bis(3-(2-methoxyethoxy)benzyl)amino)oxazole-4-carboxylate]: the “LAD Raw Fluorescence Units against LFA-1; Dose 3 µM; Ratio of raw counts Compound/THI0349” value on αLβ2/ICAM-1 is 0.49. The “Group against VCAM” value at α4β1/VCAM-1 is reported as “II (Group II is more than twice that of THI0349 but less than five times THI0349's EC50)”.

Take `COc1cccc(CN(Cc2cccc(OC)c2)c2nc(CN3CCOCC3)cs2)c1` [Compound 67, N,N-bis(3-methoxybenzyl)-4-(morpholinomethyl)thiazol-2-amine]: on αLβ2/ICAM-1, the “LAD Raw Fluorescence Units against LFA-1; Dose 3 µM; Ratio of raw counts Compound/THI0349” value was determined as 1.2. At α4β1/VCAM-1, the “Group against VCAM” value is recorded as “I (Group I maintains at least the same potency or better up to more than twice that of the EC50 of THI0349 ran on the same plate)”.

As for `CCOC(=O)c1csc(N(Cc2cccc(OC)c2)Cc2cccc(-n3cccn3)c2)n1` [Compound 119, ethyl 2-((3-(1H-pyrazol-1-yl)benzyl)(3-methoxybenzyl)amino)thiazole-4-carboxylate], the “LAD Raw Fluorescence Units against LFA-1; Dose 3 µM; Ratio of raw counts Compound/THI0349” value at αLβ2/ICAM-1 worked out at 0.2. On α4β1/VCAM-1, the “Group against VCAM” value is on record as “II (Group II is more than twice that of THI0349 but less than five times THI0349's EC50)”.

In the case of `COCCOc1cccc(CN(Cc2cccc(OC)c2)c2nc(CN3CCOCC3)cs2)c1` [Compound 74, N-(3-methoxybenzyl)-N-(3-(2-methoxyethoxy)benzyl)-4-(morpholinomethyl)thiazol-2-amine], the “LAD Raw Fluorescence Units against LFA-1; Dose 3 µM; Ratio of raw counts Compound/THI0349” value at αLβ2/ICAM-1 turned out to be 0.3. Moreover, the “Group against VCAM” value at α4β1/VCAM-1 is reported as “I (Group I maintains at least the same potency or better up to more than twice that of the EC50 of THI0349 ran on the same plate)”.

On to `CCOC(=O)c1cnc(N(Cc2cccc(OC)c2)Cc2cccc(OC)c2)nc1` [Compound 96, ethyl 2-(bis(3-methoxybenzyl)amino)pyrimidine-5-carboxylate], for which the “LAD Raw Fluorescence Units against LFA-1; Dose 3 µM; Ratio of raw counts Compound/THI0349” value at αLβ2/ICAM-1 was 0.08. Also, the “Group against VCAM” value on α4β1/VCAM-1 was “III (Group III more than five times the EC50 of THI0349)”.

Regarding `CCOC(=O)c1coc(N(Cc2cccc(OC)c2)Cc2cccc(OC)c2)n1` [Compound 14, ethyl 2-(bis(3-methoxybenzyl)amino)oxazole-4-carboxylate], the “LAD Raw Fluorescence Units against LFA-1; Dose 3 µM; Ratio of raw counts Compound/THI0349” value on αLβ2/ICAM-1 was 1.0. The “Group against VCAM” value on α4β1/VCAM-1 was “I (Group I maintains at least the same potency or better up to more than twice that of the EC50 of THI0349 ran on the same plate)”.

Turning to `CCOC(=O)c1coc(N(Cc2cccs2)Cc2cccs2)n1` [Compound 13, ethyl 2-(bis(thiophen-2-ylmethyl)amino)oxazole-4-carboxylate], the “LAD Raw Fluorescence Units against LFA-1; Dose 3 µM; Ratio of raw counts Compound/THI0349” value at αLβ2/ICAM-1 is reported as 0.1. In addition, at α4β1/VCAM-1, the “Group against VCAM” value is recorded as “I (Group I maintains at least the same potency or better up to more than twice that of the EC50 of THI0349 ran on the same plate)”.

As to `OCc1coc(N(Cc2cccs2)Cc2cccs2)n1` [Compound 25, (2-(bis(thiophen-2-ylmethyl)amino)oxazol-4-yl)methanol], the “LAD Raw Fluorescence Units against LFA-1; Dose 3 µM; Ratio of raw counts Compound/THI0349” value at αLβ2/ICAM-1 was determined as 0.74. At α4β1/VCAM-1, the “Group against VCAM” value is listed as “II (Group II is more than twice that of THI0349 but less than five times THI0349's EC50)”.

Turning to `COc1cccc(COc2cccc(N(Cc3cccc(OC)c3)Cc3cccc(OC)c3)c2)c1` [Compound 92, N,N-bis(3-methoxybenzyl)-3-((3-methoxybenzyl)oxy)aniline], the “LAD Raw Fluorescence Units against LFA-1; Dose 3 µM; Ratio of raw counts Compound/THI0349” value at αLβ2/ICAM-1 came to 0.6. The “Group against VCAM” value at α4β1/VCAM-1 is on record as “III (Group III more than five times the EC50 of THI0349)”.

On to `COc1cccc(CN(Cc2cccc(OC)c2)c2nc(CN3CCN(C)CC3)cs2)c1` [Compound 69, N,N-bis(3-methoxybenzyl)-4-((4-methylpiperazin-1-yl)methyl)thiazol-2-amine], for which, on αLβ2/ICAM-1, the “LAD Raw Fluorescence Units against LFA-1; Dose 3 µM; Ratio of raw counts Compound/THI0349” value was 0.33. Moreover, on α4β1/VCAM-1, the “Group against VCAM” value is listed as “II (Group II is more than twice that of THI0349 but less than five times THI0349's EC50)”.

Turning to `COc1cccc(CN(Cc2cccc(OC)c2)c2nc(COCCOc3ccc(Cl)cc3)cs2)c1` [Compound 49, 4-((2-(4-chlorophenoxy)ethoxy)methyl)-N,N-bis(3-methoxybenzyl)thiazol-2-amine], the “LAD Raw Fluorescence Units against LFA-1; Dose 3 µM; Ratio of raw counts Compound/THI0349” value on αLβ2/ICAM-1 was 0.63. On α4β1/VCAM-1, the “Group against VCAM” value was “II (Group II is more than twice that of THI0349 but less than five times THI0349's EC50)”.

Turning to `COc1cccc(CN(Cc2cccc(OC)c2)c2nc(COCCOCCOCc3ccccc3)cs2)c1` [Compound 53, 4-((2-(2-(benzyloxy)ethoxy)ethoxy)methyl)-N,N-bis(3-methoxybenzyl)thiazol-2-amine], the “LAD Raw Fluorescence Units against LFA-1; Dose 3 µM; Ratio of raw counts Compound/THI0349” value at αLβ2/ICAM-1 turned out to be 1.06. In addition, the “Group against VCAM” value at α4β1/VCAM-1 is “I (Group I maintains at least the same potency or better up to more than twice that of the EC50 of THI0349 ran on the same plate)”.

`COc1cccc(CN(Cc2cccc(OC)c2)c2nc(COCCOc3cccc(OC)c3)cs2)c1` [Compound 47, N,N-bis(3-methoxybenzyl)-4-((2-(3-methoxyphenoxy)ethoxy)methyl)thiazol-2-amine]: at αLβ2/ICAM-1, the “LAD Raw Fluorescence Units against LFA-1; Dose 3 µM; Ratio of raw counts Compound/THI0349” value was 0.7. For the same molecule, the “Group against VCAM” value on α4β1/VCAM-1 is “I (Group I maintains at least the same potency or better up to more than twice that of the EC50 of THI0349 ran on the same plate)”.

With `COc1cccc(CN(Cc2cccc(OC)c2)c2cnc(CCOc3ccccc3)o2)c1` [Compound 27, N,N-bis(3-methoxybenzyl)-2-(2-phenoxyethyl)oxazol-5-amine], the “LAD Raw Fluorescence Units against LFA-1; Dose 3 µM; Ratio of raw counts Compound/THI0349” value at αLβ2/ICAM-1 worked out at 0.28. The “Group against VCAM” value at α4β1/VCAM-1 was “III (Group III more than five times the EC50 of THI0349)”.

Take `CCOC(=O)c1csc(N(C)Cc2cccc(OC)c2)n1` [Compound 106, ethyl 2-((3-methoxybenzyl)(methyl)amino)thiazole-4-carboxylate]: the “LAD Raw Fluorescence Units against LFA-1; Dose 3 µM; Ratio of raw counts Compound/THI0349” value on αLβ2/ICAM-1 was 0.05. Moreover, at α4β1/VCAM-1, the “Group against VCAM” value is “III (Group III more than five times the EC50 of THI0349)”.

For `COc1cccc(CN(Cc2cccc(-n3ccnc3)c2)c2nc(CN3CCOCC3)cs2)c1` [Compound 79, N-(3-(1H-imidazol-1-yl)benzyl)-N-(3-methoxybenzyl)-4-(morpholinomethyl)thiazol-2-amine], the “LAD Raw Fluorescence Units against LFA-1; Dose 3 µM; Ratio of raw counts Compound/THI0349” value on αLβ2/ICAM-1 amounted to 0.32. The “Group against VCAM” value on α4β1/VCAM-1 is on record as “II (Group II is more than twice that of THI0349 but less than five times THI0349's EC50)”.

`COc1cccc(CN(Cc2cccc(N(C)C)c2)c2nc(CN3CCOCC3)cs2)c1` [Compound 73, N-(3-(dimethylamino)benzyl)-N-(3-methoxybenzyl)-4-(morpholinomethyl)thiazol-2-amine]: the “LAD Raw Fluorescence Units against LFA-1; Dose 3 µM; Ratio of raw counts Compound/THI0349” value on αLβ2/ICAM-1 is recorded as 0.12. Also, the “Group against VCAM” value at α4β1/VCAM-1 is given as “II (Group II is more than twice that of THI0349 but less than five times THI0349's EC50)”.

Turning to `CCc1nnc(N(Cc2cccc(OC)c2)Cc2cccc(OC)c2)s1` [Compound 94, 5-ethyl-N,N-bis(3-methoxybenzyl)-1,3,4-thiadiazol-2-amine], the “LAD Raw Fluorescence Units against LFA-1; Dose 3 µM; Ratio of raw counts Compound/THI0349” value on αLβ2/ICAM-1 was 0.29. Moreover, the “Group against VCAM” value at α4β1/VCAM-1 is “III (Group III more than five times the EC50 of THI0349)”.

As to `CCOC(=O)c1ccc(N(Cc2cccc(OC)c2)Cc2cccc(OC)c2)nc1` [Compound 95, ethyl 6-(bis(3-methoxybenzyl)amino)nicotinate], the “LAD Raw Fluorescence Units against LFA-1; Dose 3 µM; Ratio of raw counts Compound/THI0349” value at αLβ2/ICAM-1 amounted to 0.09. Also, at α4β1/VCAM-1, the “Group against VCAM” value is on record as “III (Group III more than five times the EC50 of THI0349)”.
